Patent US20230381094A1, “Cosmetic Composition with Skin Microbiome-Friendly Properties” (LG Household & Health Care Ltd., priority 2022, published 2023)

Tested on: Staphylococcus epidermidis
Experiment: Beneficial skin bacteria affinity evaluation (challenge test)
Assay type: cell-based
Details: Experimental Example 1; ingredient in oil-in-water composition of Preparation Example 1; FIG. 2 / FIG. 3
From the text: As the beneficial bacteria serving as the affinity evaluation criterion of each composition prepared in Preparation Example 1, Staphylococcus epidermidis (S. epidermidis), a Gram positive bacterium, was selected. S. epidermidis is part of the skin flora present in large numbers in healthy skin, and is a representative beneficial bacterium that helps improve skin immunity and protect skin from external environmental factors by producing peptide antibiotics or PSM (phenol-soluble modulins) (Parlet, C. P., et al. (2019) Trends in microbiology, 27(6), 497-507). The evaluation of affinity for beneficial bacteria was performed by the challenge test method (Russell A. D., (2003), Int J Cosmet Sci., 25(3), 147-153) as follows.
Specifically, S. epidermidis was first incubated in TSA (Tryptic Soy Agar) medium at 37° C. for 24 hours, and then inoculated into 50.0 g of each composition prepared in Preparation Example 1 so as to be 1×10^6 CFU to 1×10^7 CFU (colony-forming units)/mL. After inoculation, the bacteria were evenly mixed in the composition by vortexing or using a sterilized stick. After inoculation, the mixture was stored at room temperature. In consideration of the product usage cycle, such as cosmetics, and the general usage patterns of these products, a maximum of 24 hours was set as the time required for examination. With this determination, 24 hours after inoculation, 1 mL of the composition inoculated with the bacteria was diluted stepwise using a 0.85% NaCl solution, 100 μL of each diluted solution was spread on TSA medium, incubation was conducted at 37° C. for 48 hours, and then CFUs were counted.
As the affinity evaluation criterion, the following “bacterial growth index*” parameter was used, and a composition having a bacterial growth index of −1.00 or more on day 1 after inoculation of bacteria was selected as a “cosmetic with beneficial skin bacteria-friendly properties” having an effect of maintaining beneficial skin bacteria or enhancing beneficial skin bacteria.
*Bacterial growth index=log10[{Number of viable bacteria (CFU/g)}/{Number of inoculated bacteria (CFU/g)}]

Q: diethoxyethyl succinate was tested. Which “growth of beneficial bacteria (result in words)” value (“growth of beneficial bacteria” below) did it give?
A: inhibit the growth of beneficial bacteria

Q: sodium dilauramidoglutamide lysine was tested. Which “growth of beneficial bacteria” value did it give?
A: did not inhibit the growth of beneficial bacteria

Q: `C=CCCCCCCCCC(=O)OCCCCCCC` [heptyl undecylenate] was tested. Which “growth of beneficial bacteria” value did it give?
A: inhibit the growth of beneficial bacteria

Q: How did the “growth of beneficial bacteria” value turn out when inulin lauryl carbamate was run?
A: did not inhibit the growth of beneficial bacteria

Q: With `CCOCCOCCOC(=O)C1CCC(C(=O)OCCOCCOCC)CC1` (centres unmarked) [bis-ethoxydiglycol cyclohexane 1,4-dicarboxylate] as the molecule, how does the “growth of beneficial bacteria” value read?
A: inhibit the growth of beneficial bacteria
